Data: PMC5053573, “Structure-Based Design of Tetrahydroisoquinoline-7-carboxamides as Selective Discoidin Domain Receptor 1 (DDR1) Inhibitors” (Journal of Medicinal Chemistry, 2016)

Key:
Assay in all cases: biochemical
Details in all cases: read-out: %Ctrl @ 1000nM
ERK1 = target: T1, ERK1 (Homo sapiens, UniProt P27361)
T1 construct: gene MAPK3

JNK1 = target: T2, JNK1 (Homo sapiens, UniProt P45983)
T2 construct: gene MAPK8

PRKCD = PRKCD (Homo sapiens, UniProt Q05655)
ALK(L1196M) = ALK(L1196M) (Homo sapiens, UniProt Q9UM73, L1196M)
TNNI3K = TNNI3K (Homo sapiens, UniProt Q59H18)
NEK3 = NEK3 (Homo sapiens, UniProt P51956)
TIE1 = TIE1 (Homo sapiens, UniProt P35590)
Chain of TIE1 (P35590 whole entry): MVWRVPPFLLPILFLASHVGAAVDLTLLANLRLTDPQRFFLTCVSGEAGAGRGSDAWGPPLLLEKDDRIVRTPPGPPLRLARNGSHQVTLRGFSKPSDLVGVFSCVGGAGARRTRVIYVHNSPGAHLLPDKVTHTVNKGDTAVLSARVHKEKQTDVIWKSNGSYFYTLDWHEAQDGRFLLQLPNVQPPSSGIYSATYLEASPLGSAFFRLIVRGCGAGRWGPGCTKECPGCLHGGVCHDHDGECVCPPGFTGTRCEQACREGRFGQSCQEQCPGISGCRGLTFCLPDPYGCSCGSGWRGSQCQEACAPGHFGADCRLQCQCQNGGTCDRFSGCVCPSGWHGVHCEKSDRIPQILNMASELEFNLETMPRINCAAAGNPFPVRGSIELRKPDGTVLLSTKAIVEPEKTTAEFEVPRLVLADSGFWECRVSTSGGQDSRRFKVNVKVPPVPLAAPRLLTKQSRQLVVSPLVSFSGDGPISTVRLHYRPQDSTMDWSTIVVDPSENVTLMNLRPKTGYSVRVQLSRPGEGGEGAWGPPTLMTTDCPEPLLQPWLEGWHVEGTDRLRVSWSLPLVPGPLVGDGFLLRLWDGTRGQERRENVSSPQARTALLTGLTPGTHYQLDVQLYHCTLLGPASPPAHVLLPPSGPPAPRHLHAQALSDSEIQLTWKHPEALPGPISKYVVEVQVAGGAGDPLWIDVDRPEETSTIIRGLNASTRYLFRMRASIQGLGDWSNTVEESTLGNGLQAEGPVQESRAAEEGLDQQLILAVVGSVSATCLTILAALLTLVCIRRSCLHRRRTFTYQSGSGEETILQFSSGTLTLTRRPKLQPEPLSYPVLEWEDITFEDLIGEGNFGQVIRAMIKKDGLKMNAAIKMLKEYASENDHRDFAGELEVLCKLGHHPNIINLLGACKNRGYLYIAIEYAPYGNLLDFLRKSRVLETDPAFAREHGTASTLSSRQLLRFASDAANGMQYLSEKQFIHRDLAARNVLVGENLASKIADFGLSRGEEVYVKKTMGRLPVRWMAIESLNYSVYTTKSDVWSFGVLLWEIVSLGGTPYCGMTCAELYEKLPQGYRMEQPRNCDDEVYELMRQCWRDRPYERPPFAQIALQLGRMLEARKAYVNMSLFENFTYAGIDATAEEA

MEK5 = target: T3, MEK5 (Homo sapiens, UniProt Q13163)
T3 construct: gene MAP2K5

[1] = target: RPS6KA5(Kin.Dom.1-N-terminal) (Homo sapiens, UniProt O75582)
TIE2 = target: T4, TIE2 (Homo sapiens, UniProt Q02763)
T4 construct: gene TEK

SLK = SLK (Homo sapiens, UniProt Q9H2G2)
AAK1 = AAK1 (Homo sapiens, UniProt Q2M2I8)
ITK = ITK (Homo sapiens, UniProt Q08881)
Chain of ITK (Q08881 whole entry): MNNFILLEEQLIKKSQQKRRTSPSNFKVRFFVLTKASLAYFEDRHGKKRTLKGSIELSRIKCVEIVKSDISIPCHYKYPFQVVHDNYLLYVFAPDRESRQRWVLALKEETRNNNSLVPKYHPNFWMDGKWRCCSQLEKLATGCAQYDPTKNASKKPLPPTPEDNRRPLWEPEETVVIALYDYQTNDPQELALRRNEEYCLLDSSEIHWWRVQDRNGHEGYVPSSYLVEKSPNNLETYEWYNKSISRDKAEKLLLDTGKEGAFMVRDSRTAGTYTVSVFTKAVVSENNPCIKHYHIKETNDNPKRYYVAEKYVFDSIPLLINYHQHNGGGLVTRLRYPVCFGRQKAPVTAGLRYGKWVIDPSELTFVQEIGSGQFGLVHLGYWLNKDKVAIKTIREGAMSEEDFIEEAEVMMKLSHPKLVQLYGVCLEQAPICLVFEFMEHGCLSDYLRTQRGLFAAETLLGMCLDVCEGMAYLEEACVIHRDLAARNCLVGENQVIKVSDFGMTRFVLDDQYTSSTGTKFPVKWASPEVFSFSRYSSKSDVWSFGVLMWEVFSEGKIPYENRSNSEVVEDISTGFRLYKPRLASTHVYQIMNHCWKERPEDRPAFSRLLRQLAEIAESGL

PIK3CA(E542K) = PIK3CA(E542K) (Homo sapiens, UniProt P42336, E542K)
MARK1 = MARK1 (Homo sapiens, UniProt Q9P0L2)
SBK1 = SBK1 (Homo sapiens, UniProt Q52WX2)
LRRK2(G2019S) = LRRK2(G2019S) (Homo sapiens, UniProt Q5S007, G2019S)
MARK4 = MARK4 (Homo sapiens, UniProt Q96L34)
RIPK2 = RIPK2 (Homo sapiens, UniProt O43353)
CDK4 = CDK4 (Homo sapiens, UniProt P11802)
AURKC = AURKC (Homo sapiens, UniProt Q9UQB9)
NEK1 = NEK1 (Homo sapiens, UniProt Q96PY6)
NEK10 = NEK10 (Homo sapiens, UniProt Q6ZWH5)
PRKX = PRKX (Homo sapiens, UniProt P51817)
Chain of PRKX (P51817 whole entry): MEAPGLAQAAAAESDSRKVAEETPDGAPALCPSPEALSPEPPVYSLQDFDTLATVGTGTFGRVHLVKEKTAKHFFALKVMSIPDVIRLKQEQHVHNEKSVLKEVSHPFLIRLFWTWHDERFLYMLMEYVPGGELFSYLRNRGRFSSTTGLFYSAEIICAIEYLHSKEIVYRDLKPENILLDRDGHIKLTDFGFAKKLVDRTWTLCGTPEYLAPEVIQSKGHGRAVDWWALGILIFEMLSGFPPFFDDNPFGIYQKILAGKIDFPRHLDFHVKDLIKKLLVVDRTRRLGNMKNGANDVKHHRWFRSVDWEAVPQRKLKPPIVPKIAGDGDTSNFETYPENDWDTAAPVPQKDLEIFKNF

EGFR = EGFR (Homo sapiens, UniProt P00533)
Chain of EGFR (P00533 whole entry): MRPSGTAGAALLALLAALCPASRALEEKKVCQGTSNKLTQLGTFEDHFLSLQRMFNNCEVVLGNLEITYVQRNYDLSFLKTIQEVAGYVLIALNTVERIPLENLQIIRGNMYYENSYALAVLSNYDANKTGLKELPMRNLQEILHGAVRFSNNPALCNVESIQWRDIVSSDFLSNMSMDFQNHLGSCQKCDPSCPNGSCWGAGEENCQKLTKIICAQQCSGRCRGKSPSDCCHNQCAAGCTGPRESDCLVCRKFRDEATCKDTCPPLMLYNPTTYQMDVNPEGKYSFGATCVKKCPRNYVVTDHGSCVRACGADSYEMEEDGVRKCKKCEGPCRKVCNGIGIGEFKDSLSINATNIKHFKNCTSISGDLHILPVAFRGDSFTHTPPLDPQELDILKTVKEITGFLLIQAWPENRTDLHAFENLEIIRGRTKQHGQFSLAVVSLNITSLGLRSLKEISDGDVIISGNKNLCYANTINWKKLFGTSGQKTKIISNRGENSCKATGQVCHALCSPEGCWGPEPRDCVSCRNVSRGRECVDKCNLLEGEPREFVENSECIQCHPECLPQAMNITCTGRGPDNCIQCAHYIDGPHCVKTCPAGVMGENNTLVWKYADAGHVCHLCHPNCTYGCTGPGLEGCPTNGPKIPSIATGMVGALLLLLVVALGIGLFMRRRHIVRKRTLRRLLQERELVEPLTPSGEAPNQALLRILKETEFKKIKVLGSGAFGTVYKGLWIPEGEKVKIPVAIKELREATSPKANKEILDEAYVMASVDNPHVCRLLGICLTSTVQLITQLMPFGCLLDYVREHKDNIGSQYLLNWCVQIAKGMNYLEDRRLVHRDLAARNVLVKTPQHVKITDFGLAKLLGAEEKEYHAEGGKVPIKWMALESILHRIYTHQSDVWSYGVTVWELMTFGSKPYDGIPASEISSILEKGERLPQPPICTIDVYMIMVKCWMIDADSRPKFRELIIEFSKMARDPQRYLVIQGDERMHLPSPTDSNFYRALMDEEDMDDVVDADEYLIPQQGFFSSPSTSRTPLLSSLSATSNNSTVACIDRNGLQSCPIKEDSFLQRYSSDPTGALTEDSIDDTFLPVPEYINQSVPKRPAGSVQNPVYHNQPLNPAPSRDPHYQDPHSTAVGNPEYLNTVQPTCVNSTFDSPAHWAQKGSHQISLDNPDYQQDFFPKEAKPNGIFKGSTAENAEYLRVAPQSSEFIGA

CAMKK1 = CAMKK1 (Homo sapiens, UniProt Q8N5S9)
Chain of CAMKK1 (Q8N5S9 whole entry): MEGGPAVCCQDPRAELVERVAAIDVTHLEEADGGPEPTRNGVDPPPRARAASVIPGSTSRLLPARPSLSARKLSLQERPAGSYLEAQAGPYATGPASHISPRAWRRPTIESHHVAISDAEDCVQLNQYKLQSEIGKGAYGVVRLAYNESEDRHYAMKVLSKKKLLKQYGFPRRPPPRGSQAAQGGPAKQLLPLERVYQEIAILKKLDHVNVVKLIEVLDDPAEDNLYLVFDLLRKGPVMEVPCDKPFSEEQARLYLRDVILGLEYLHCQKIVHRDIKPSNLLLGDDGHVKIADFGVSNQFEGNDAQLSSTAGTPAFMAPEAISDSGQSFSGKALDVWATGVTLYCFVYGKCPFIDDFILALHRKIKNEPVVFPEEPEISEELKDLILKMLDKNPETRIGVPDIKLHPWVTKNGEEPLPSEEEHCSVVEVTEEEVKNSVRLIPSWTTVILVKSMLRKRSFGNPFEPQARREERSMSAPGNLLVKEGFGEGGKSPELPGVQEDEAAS

[2] = target: RPS6KA4(Kin.Dom.1-N-terminal) (Homo sapiens, UniProt O75676)
PRKG2 = PRKG2 (Homo sapiens, UniProt Q13237)
EPHA6 = EPHA6 (Homo sapiens, UniProt Q9UF33)
FGFR1 = FGFR1 (Homo sapiens, UniProt P11362)
GAK = GAK (Homo sapiens, UniProt O14976)
TBK1 = TBK1 (Homo sapiens, UniProt Q9UHD2)
LATS2 = LATS2 (Homo sapiens, UniProt Q9NRM7)
STK35 = STK35 (Homo sapiens, UniProt Q8TDR2)
Chain of STK35 (Q8TDR2 whole entry): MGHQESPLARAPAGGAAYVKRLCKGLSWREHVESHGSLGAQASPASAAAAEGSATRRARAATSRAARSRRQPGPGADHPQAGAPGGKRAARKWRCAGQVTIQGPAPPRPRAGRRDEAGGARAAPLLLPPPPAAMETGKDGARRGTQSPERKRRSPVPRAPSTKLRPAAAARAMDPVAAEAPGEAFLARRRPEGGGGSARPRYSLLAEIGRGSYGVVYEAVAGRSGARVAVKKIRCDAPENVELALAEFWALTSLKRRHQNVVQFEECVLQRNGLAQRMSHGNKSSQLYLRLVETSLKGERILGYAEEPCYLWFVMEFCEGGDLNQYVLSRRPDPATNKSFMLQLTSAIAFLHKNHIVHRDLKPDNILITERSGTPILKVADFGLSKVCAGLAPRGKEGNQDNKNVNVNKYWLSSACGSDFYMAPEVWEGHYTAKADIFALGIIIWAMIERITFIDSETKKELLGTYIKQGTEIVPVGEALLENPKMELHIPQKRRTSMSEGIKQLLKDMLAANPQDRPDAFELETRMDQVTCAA

PIP5K2C = target: T5, PIP5K2C (Homo sapiens, UniProt Q8TBX8)
T5 construct: gene PIP4K2C

Chain of PRKCD (Q05655 whole entry): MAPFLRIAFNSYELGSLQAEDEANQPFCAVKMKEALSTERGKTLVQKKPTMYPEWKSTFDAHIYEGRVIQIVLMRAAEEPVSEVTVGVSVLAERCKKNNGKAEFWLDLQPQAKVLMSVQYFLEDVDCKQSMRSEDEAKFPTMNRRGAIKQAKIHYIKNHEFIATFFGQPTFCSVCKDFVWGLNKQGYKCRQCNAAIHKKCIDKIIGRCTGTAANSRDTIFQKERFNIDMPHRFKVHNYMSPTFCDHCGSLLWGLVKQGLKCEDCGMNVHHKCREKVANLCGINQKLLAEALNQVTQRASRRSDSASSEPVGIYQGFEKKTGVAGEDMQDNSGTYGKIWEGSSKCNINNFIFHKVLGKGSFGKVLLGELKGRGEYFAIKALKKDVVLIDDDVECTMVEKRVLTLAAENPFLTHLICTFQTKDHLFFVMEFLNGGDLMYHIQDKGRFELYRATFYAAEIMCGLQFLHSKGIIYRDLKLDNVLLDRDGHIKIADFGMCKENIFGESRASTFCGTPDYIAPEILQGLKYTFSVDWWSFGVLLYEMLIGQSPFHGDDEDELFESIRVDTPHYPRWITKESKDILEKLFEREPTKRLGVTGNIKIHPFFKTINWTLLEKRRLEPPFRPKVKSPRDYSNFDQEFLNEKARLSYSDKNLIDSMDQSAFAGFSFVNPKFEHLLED

remaining activity at 1 µM (ERK1): 95% | remaining activity at 1 µM (JNK1): 97% | remaining activity at 1 µM (PRKCD): 94% | remaining activity at 1 µM (ALK(L1196M)): 100% | remaining activity at 1 µM (TNNI3K): 65% | remaining activity at 1 µM (NEK3): 94% | remaining activity at 1 µM (TIE1): 74% | remaining activity at 1 µM (MEK5): 100% | remaining activity at 1 µM [1]: 97% | remaining activity at 1 µM (TIE2): 64% | remaining activity at 1 µM (SLK): 71% | remaining activity at 1 µM (AAK1): 77% | remaining activity at 1 µM (ITK): 97% | remaining activity at 1 µM (PIK3CA(E542K)): 100% | remaining activity at 1 µM (MARK1): 74% | remaining activity at 1 µM (SBK1): 100% | remaining activity at 1 µM (LRRK2(G2019S)): 100% | remaining activity at 1 µM (MARK4): 100% | remaining activity at 1 µM (RIPK2): 80% | remaining activity at 1 µM (CDK4): 98% | remaining activity at 1 µM (AURKC): 100% | remaining activity at 1 µM (NEK1): 100% | remaining activity at 1 µM (NEK10): 100% | remaining activity at 1 µM (PRKX): 96% | remaining activity at 1 µM (EGFR): 94% | remaining activity at 1 µM (CAMKK1): 64% | remaining activity at 1 µM [2]: 87% | remaining activity at 1 µM (PRKG2): 98% | remaining activity at 1 µM (EPHA6): 58% | remaining activity at 1 µM (FGFR1): 79% | remaining activity at 1 µM (GAK): 95% | remaining activity at 1 µM (TBK1): 95% | remaining activity at 1 µM (LATS2): 100% | remaining activity at 1 µM (STK35): 100% | remaining activity at 1 µM (PIP5K2C): 100%
Structure (SMILES): Cc1cn(-c2cc(NC(=O)c3ccc4c(c3)CN(c3cncnc3)C[C@@H]4C)cc(C(F)(F)F)c2)cn1 [Compound 6j]
